Source: publication PMC8121805, “Discovery of first-in-class inhibitors of ASH1L histone methyltransferase with anti-leukemic activity” (Nature Communications, 2021)
Entries after “also recorded” stand apart in the source; their conditions may differ.

Tests used:
ASH1L S2259M = biological target: T1, ASH1L S2259M (Homo sapiens, UniProt Q9NR48, S2264M); experiment: NMR binding to S2259M mutant; settings: NMR chemical shift perturbations
T1 construct: ASH1L SET domain (2069–2288) in the buffer; made in house
Procedure: For fragment screening, we used an in-house library of 1600 fragment-like compounds with the following properties: average Mw = 183 Da (range of 84–345 Da), mean clogP = 1.5 (from −2.5 to 3.7), hydrogen bond acceptors: from 0 to 6 (median = 3), hydrogen bond donors: 0 to 3 (median = 1).
Supplementary Figure 2. Binding of ASH1L inhibitors. (a) Superposition of the H- N TROSY-HSQC spectra of 100 µM ASH1L SET with 5% DMSO (black) or with 1 mM of compound 1 (red). Most perturbed residues are marked in boxes. (b) Superposition of the crystal structure of ASH1L SET domain (4YNM in PDB) and S2259M mutant of ASH1L (4YNP in PDB). (c) Superposition of the 1H-15N TROSY-HSQC spectra of 100 µM ASH1L S2259M mutant

ASH1L SET domain = biological target: T2, ASH1L SET domain (Homo sapiens, UniProt Q9NR48); experiment: NMR titration (1H-15N TROSY-HSQC); format: binding; settings: linear chemical shift perturbations up to 1 mM
T2 construct: ASH1L SET domain (amino acids 2069–2288) was expressed and purified; Mocr (N, cleaved yes); made in house; host or cells: E. coli BL21(DE3)

For `NC(=S)c1cccc(-n2cccc2)c1` [compound 1], the “binding to ASH1L S2259M mutant” value (ASH1L S2259M) was “no binding; also recorded: not bind to the S2259M mutant” and the Kd (ASH1L SET domain) was > 1000 µM.
